Measured values from article PMC12349723, “Computationally accelerated identification of P-glycoprotein inhibitors” (PLOS One, 2025).
Several values for one entry are separate records, joined by “and”; a condition that tells them apart may be missing. Identical values can stand only once.

Tests used:
[1] = Resazurin cell viability pre-screen in DU145-TXR cells with or without PTX; assay type: cell-based; conditions: human, mean of two experiments in triplicate, read-out: Viability, 15 µM compound alone
Procedure: Culture of the DU145, DU145-TXR, and HFL1 cell lines was performed as described in [8]. Culture of the A2780 and A2780-ADR cell lines was performed as described in [9]. MTT assays were performed as described in [8] with minor modifications. LC-MS/MS accumulation assays were performed as described in {Nanayakkara, 2018 #173} [9] with some modifications. […] The inhibitor concentration was lowered to 15 µM here, as the goal of the study was to identify compounds that were effective in reversing MDR at low concentrations, and to determine if the expanded virtual-assisted methods improved on our first-draft attempt. Compounds 56–98 were pre-screened using Resazurin cell viability assays: cells were incubated with 15 µM compound with or without 500 nM PTX for 48 hours, after which cell survival was assessed similar to [39]. Data represent the mean of two separate experiments, with n = 3 samples per experiment (n = 6 total) (S4 Table). The top performing compounds from this initial screen were re-tested with MTT viability assays against DU145-TXR cells, as described below.
S4 Table. Pre-screening of compounds 56 – 98 against DU145-TXR cells with resazurin assays. DU145-TXR cells were incubated with 15 µM compound with or without 500nM PTX for 48 hrs; survival was subsequently determined with the Resazurin viability assay ^[37]. […] Percent re-sensitization is defined as the percent change in viability between cells treated with compound and PTX, versus cells treated with PTX alone. In some instances, the assay reported an increase in viability with compound + PTX, and no percent sensitization is reported. ‘Follow-up Testing’ compounds were re-assessed with MTT assays (Figure 1). Compounds 59 and 89 (*, ‘Follow-up Testing’) were used as negative controls in follow-up MTT assays to test for consistency of results, e.g. to confirm that molecules eliminated in Resazurin assays were justifiably eliminated from later screening with MTT assays.

[2] = test system: HFL1 (human lung fibroblast) cell line; assay: MTT viability assay, inherent toxicity in non-cancerous HFL1 cells; assay type: cell-based; design: Mean % Survival: tested at 15 µM; conditions: for Inherent toxicity to non-cancerous HFL1 cells: 15 µM compound, 48 h, MTT, 20% reduction in viability = maximum acceptable toxicity; for Mean % Survival / % Survival (individual sample): HFL1 cells, compound alone; for Mean % Survival: mean of 8 samples; for % Survival (individual sample): single samples (trials 1-2, samples 1-4)
Procedure: The chemotherapeutic sensitive DU145 human prostate cancer cells and the multidrug resistant sub-line, DU145-TXR, were generous gifts from Dr. Evan Keller (University of Michigan, Ann Arbor, MI). The MDR, P-gp overexpressing DU145-TXR cells were maintained under positive selection pressure by supplementing complete medium with 10 nM paclitaxel (Acros Organics, NJ). […] The MDR, P-gp overexpressing A2780-ADR cell line was maintained under positive selection pressure by supplementing complete medium with 100 nM doxorubicin (Fisher Scientific, NJ). The non-cancerous HFL1 (human lung fibroblast) cell line cell line was a generous gift from Dr. Robert Harrod (Southern Methodist University, Dallas, TX) and was maintained in complete F12K media consisting of F12K with 10% fetal bovine serum, 100 U/mL penicillin, and 100 µg/mL streptomycin (Gibco). Flasks and 96 well plates that were used with the non-cancerous line HFL1 were pre-treated with 0.1 mg/ml Collagen Type 1 (Gibco) and rinsed with PBS (Fisher).
MTT assays measure the reduction of yellow, water soluble 3-(4,5-dimethylthiazol-2-yl)-2,5-diphenyltetrazolium bromide (MTT) to blue, insoluble formazan crystals by cellular reductase processes in living cells. Cells were trypsinized from monolayers and seeded in complete medium in 96 well plates. Cancerous cell lines (DU145, DU145-TXR, A2780, A2780-ADR) were seeded at 3,000 cells per well in complete RPMI medium. The non-cancerous HFL1 line was seeded at 4,000 cells per well in complete F12K medium, in collagen-treated plates (Collagen Type 1, Gibco). Cells were incubated with experimental compounds for 48 hours at 37 °C and 5% CO2 in a humidified incubator. At 48 hours, MTT was added (20 µL/well of 5 mg/mL MTT in PBS) to each well. After incubation for 4 hours, the media was removed, and the formazan crystals were dissolved in 100 µL DMSO per well. Plates containing the semi-adherent A2780 or A2780-ADR lines were spun at 1400 rpm for 3 minutes prior to aspiration of media, and the addition of DMSO. Plates were shaken for 10 minutes at 500 rpm on an Orbital shaker (LabDoctor from MidSci, St Louis, MO). The absorbance was measured at 570 nm using a Bio-Tek Cytation 5 (Bio-Tek, Winooski, VT). The measured absorbance value was correlated with the number of metabolically active cells in that well, corrected for absorbance of media. The percent of cell viability (termed ‘survival’ here) was calculated as a percentage of survival of the control condition, which refers to vehicle-treated (DMSO as vehicle) cells, or vehicle-and-chemotherapeutic-treated cells, if testing a compound’s ability to re-sensitize cells to a chemotherapeutic. Percent survival was calculated using the following equation:
% Survival=100 × absorbance of experimental cells/mean absorbance of control treated cells
For DU145-TXR, DU145, HFL1 and A2780 cells – data are the mean ± one standard deviation, 8 samples per compound, from at least two independent trials per compound. […] For A2780-ADR cells, data are the mean ± one standard deviation with 12 samples per compound, from at least two independent trials per compound.
If a P-gp inhibitor is intrinsically toxic to non-cancerous cells, it is more likely to be participating in undesirable off-target interactions. The top compounds from the screens shown above were screened for inherent toxicity using the non-cancerous HFL1 (human lung fibroblast) cell line. HFL1 cells were incubated with 15 µM compound for 48 hours, after which cell viability was assessed using MTT cell viability assays. A 20% reduction in cell viability (compared to DMSO-treated cells) was considered the maximum acceptable toxicity (see dotted line). The chemotherapeutic daunorubicin was included as a positive control for toxicity.
The top compounds from previous screens were tested against the non-cancerous HFL1 cell line.

Row | SMILES | viability at 48 h, 15 µM [1] | Inherent toxicity to non-cancerous HFL1 cells [2] | Mean % Survival [2] | % Survival (individual sample) [2]
1 | Cn1cnnc1SCc1c(C(=O)O)nnn1-c1nonc1N [Compound 59, Cn1cnnc1SCc1c(nnn1-c1nonc1N)C(O)=O] | 101% | – | – | –
2 | Nc1nonc1-n1nnc(C(=O)N/N=C/c2c3ccccc3cc3ccccc23)c1COc1ccc(F)cc1 [Compound 60, Nc1nonc1-n1nnc(C(=O)N\N=C\c2c3ccccc3cc3ccccc23)c1COc1ccc(F)cc1] | 88% | – | – | –
3 | CCN1CCN(Cc2c(C(=O)N/N=C3/C(=O)N(C)c4ccccc43)nnn2-c2nonc2N)CC1 [Compound 61, CCN1CCN(Cc2c(nnn2-c2nonc2N)C(=O)N\N=C2\C(=O)N(C)c3ccccc23)CC1] | 98.8% | – | – | –
4 | O=C(c1cc2ccccc2[nH]1)N1CCN(S(=O)(=O)c2cccc3nonc23)CC1 [Compound 66, O=C(N1CCN(CC1)S(=O)(=O)c1cccc2nonc12)c1cc2ccccc2[nH]1] | 98.3% | – | – | –
5 | O=C(c1nc(-c2ccc3cc[nH]c3c2)no1)N1CCN(c2nsc3ccccc23)CC1 [Compound 70, O=C(N1CCN(CC1)c1nsc2ccccc12)c1nc(no1)-c1ccc2cc[nH]c2c1] | 99.2% | either ‘non-toxic’ or ‘within acceptable limits’ of toxicity | 81.4% | 81% and 85%
6 | COc1ccc(OC)c(NC(=O)c2nnn(-c3ccc4noc(-c5ccccc5)c4c3)c2C)c1 [Compound 71, COc1ccc(OC)c(NC(=O)c2nnn(c2C)-c2ccc3noc(-c4ccccc4)c3c2)c1] | 93% | – | – | –
7 | Cc1onc(-c2ccccc2)c1-c1nnc(Cn2cnc3c(oc4ccccc43)c2=O)o1 [Compound 78, Cc1onc(c1-c1nnc(Cn2cnc3c4ccccc4oc3c2=O)o1)-c1ccccc1] | 95.2% | either ‘non-toxic’ or ‘within acceptable limits’ of toxicity | 99.6% | 102%
8 | NS(=O)(=O)c1cccc(NC(=O)CSc2nnnn2C2CC2)c1 [Compound 89, NS(=O)(=O)c1cccc(NC(=O)CSc2nnnn2C2CC2)c1] | 93.7% | – | – | –
9 | O=S(=O)(CCSc1nnc(-c2ccccc2)c2ccccc12)c1ccccc1 [Compound 96, O=S(=O)(CCSc1nnc(-c2ccccc2)c2ccccc12)c1ccccc1] | 89.4% | either ‘non-toxic’ or ‘within acceptable limits’ of toxicity | 92.7% | 91%
10 | O=S(=O)(Cc1nc2ccccc2n1CC(O)c1ccc(Cl)cc1)c1ccccc1 (stereo not drawn) [Compound 97, OC(Cn1c(CS(=O)(=O)c2ccccc2)nc2ccccc12)c1ccc(Cl)cc1] | 102% | either ‘non-toxic’ or ‘within acceptable limits’ of toxicity | 84.9% | 85%
11 | COc1cccc(N2CCN(c3ccc4nnc(CCC(=O)Nc5ccc(F)c(F)c5)n4n3)CC2)c1 [Compound 101, COc1cccc(c1)N1CCN(CC1)c1ccc2nnc(CCC(=O)Nc3ccc(F)c(F)c3)n2n1] | – | either ‘non-toxic’ or ‘within acceptable limits’ of toxicity | 100.9% | 103%
12 | Cc1ccc(-c2noc(-c3cn(Cc4ccc(NS(=O)(=O)c5ccccc5F)cc4)cn3)n2)cc1 [Compound 103, Cc1ccc(cc1)-c1noc(n1)-c1cn(Cc2ccc(NS(=O)(=O)c3ccccc3F)cc2)cn1] | – | either ‘non-toxic’ or ‘within acceptable limits’ of toxicity | 93.4% | –
13 | Cc1onc(-c2ccccc2)c1-c1nnc(Cn2cnc3ccccc3c2=O)o1 [Compound 111, Cc1onc(c1-c1nnc(Cn2cnc3ccccc3c2=O)o1)-c1ccccc1] | – | either ‘non-toxic’ or ‘within acceptable limits’ of toxicity | 96.0% | 92%
14 | O=C(NCc1cccc(F)c1)c1nnn2c1Sc1c(C(=O)NCc3cccc(F)c3)nnn1CC2 [Compound 122, Fc1cccc(CNC(=O)c2nnn3CCn4nnc(C(=O)NCc5cccc(F)c5)c4Sc23)c1] | – | either ‘non-toxic’ or ‘within acceptable limits’ of toxicity | 79.7% | –
15 | O=C(c1nc(-c2ccccn2)no1)N1CCN(c2nsc3ccccc23)CC1 [Compound 124, O=C(N1CCN(CC1)c1nsc2ccccc12)c1nc(no1)-c1ccccn1] | – | either ‘non-toxic’ or ‘within acceptable limits’ of toxicity | 84.6% | 89%
16 | COc1cc2c(cc1OC)CN(CCc1ccc(NC(=O)c3cc(OC)c(OC)cc3NC(=O)c3cnc4ccccc4c3)cc1)CC2 [Tariquidar, reference compound] | 75.2% | – | – | –
